Measured values from ChEMBL document CHEMBL5729461, “CDPK1 inhibitors, compositions, and methods related thereto” (2022).

molecular target: T1, Calmodulin-domain protein kinase 1 (Toxoplasma gondii, UniProt Q9BJF5); test: Inhibition Assay: Certain of the compounds prepared as described above were assayed to determine their IC50 for inhibition of T. gondii CDPK1 (tgCDPK1). At least three independent replicates of the assay were conducted for each compound tested.
T1 sequence (Q9BJF5 whole entry): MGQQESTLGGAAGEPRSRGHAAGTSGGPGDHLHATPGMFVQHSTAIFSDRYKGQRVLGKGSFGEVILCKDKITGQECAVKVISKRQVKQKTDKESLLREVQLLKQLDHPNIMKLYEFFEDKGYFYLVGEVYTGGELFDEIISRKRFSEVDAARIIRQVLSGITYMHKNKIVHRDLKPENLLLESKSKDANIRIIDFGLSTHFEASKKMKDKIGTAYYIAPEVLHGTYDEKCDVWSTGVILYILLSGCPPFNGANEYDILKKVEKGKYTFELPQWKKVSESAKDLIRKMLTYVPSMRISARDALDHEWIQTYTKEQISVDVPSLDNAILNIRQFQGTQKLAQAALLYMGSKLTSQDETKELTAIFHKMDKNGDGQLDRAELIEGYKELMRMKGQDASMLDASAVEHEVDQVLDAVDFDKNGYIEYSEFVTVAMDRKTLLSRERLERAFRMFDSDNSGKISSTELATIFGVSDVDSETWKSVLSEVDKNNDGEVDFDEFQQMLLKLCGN

For `Nc1ncnc2c1c(Cc1cccc(Cl)c1)nn2[C@H]1C[C@H](O)C1`, which IC50 is on record?
The IC50 was 8.87 nM.

`Nc1ncnc2c1c(Cc1cccc(F)c1)nn2[C@H]1C[C@H](F)C1` was tested. Which IC50 did it give?
Its IC50 is 14.2 nM.

`NC(=O)c1ccnc(Oc2nn([C@H]3C[C@H](F)C3)c3ncnc(N)c23)c1` was tested. Which IC50 did it give?
Its IC50 is 69.7 nM.

`N#Cc1cccc(Cc2nn([C@H]3C[C@H](F)C3)c3ncnc(N)c23)c1` was tested. Which IC50 did it give?
The IC50 was 45.9 nM.

For `Nc1ncnc2c1c(Cc1cccc(Cl)c1)nn2[C@H]1C[C@@H](F)C1`, which IC50 is on record?
The IC50 was 7.05 nM.

Which IC50 does the source give for `Nc1ncnc2c1c(Cc1cccc(F)c1)cn2[C@H]1C[C@H](O)C1` here?
Its IC50 is 28.3 nM.

With `COc1ccnc(Oc2nn([C@H]3C[C@@H](O)C3)c3ncnc(N)c23)c1` as the compound, how does the IC50 read?
Its IC50 is 37.1 nM.

How did the IC50 turn out when `Nc1ncnc2c1c(Cc1cccc(C(F)(F)F)c1)nn2[C@H]1C[C@H](O)C1` was run?
The IC50 was 36 nM.

How did the IC50 turn out when `Nc1ncnc2c1c(Cc1cccc(F)c1)nn2[C@H]1C[C@H](O)C1` was run?
The IC50 was 28.3 nM.
